Data: ChEMBL document CHEMBL1201862, “PubChem BioAssay data set” (2004)
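Cultured in 96-well plates, cells were exposed to test compound for 48 hours across five concentrations. Here, GI50 denotes the concentration required for 50% inhibition of growth.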 Activity calls are given as the source filed them. Cut-off read from the data, not from the text of the source: active = GI50 up to about 1.1 µM and inactive = higher.

Key:
Assay in all cases: inhibition of tumour cell growth, NCI panel, 48 h
SF-268 = test system: SF-268
EKVX = test system: EKVX
SNB-19 = test system: SNB-19
HOP-18 = test system: HOP-18
DMS-114 = test system: DMS-114
OVCAR-4 = test system: OVCAR-4
COLO 205 = test system: COLO 205
LOX IMVI = test system: LOX IMVI
HL-60 = test system: HL-60
RXF 393 = test system: RXF 393
A498 = test system: A498
UACC-257 = test system: UACC-257
SNB-75 = test system: SNB-75
NCI-H522 = test system: NCI-H522
HOP-92 = test system: HOP-92
NCI-H226 = test system: NCI-H226
NCI-H23 = test system: NCI-H23
SN12C = test system: SN12C
IGROV-1 = test system: IGROV-1
NCI-H460 = test system: NCI-H460
U-251 = test system: U-251
OVCAR-3 = test system: OVCAR-3
HT-29 = test system: HT-29
OVCAR-5 = test system: OVCAR-5
Malme-3M = test system: Malme-3M
SF-295 = test system: SF-295
786-0 = test system: 786-0
MOLT-4 = test system: MOLT-4
KM-20L2 = test system: KM-20L2
SK-MEL-28 = test system: SK-MEL-28
SK-MEL-2 = test system: SK-MEL-2
TK-10 = test system: TK-10
XF498 = test system: XF498
SF-539 = test system: SF-539
OVCAR-8 = test system: OVCAR-8
K562 = test system: K562
HOP-62 = test system: HOP-62
SR = test system: SR
HCT-116 = test system: HCT-116
M19-MEL = test system: M19-MEL
HCC 2998 = test system: HCC 2998
KM12 = test system: KM12
SW-620 = test system: SW-620
HCT-15 = test system: HCT-15
A549 = test system: A549
DLD-1 = test system: DLD-1
ACHN = test system: ACHN
UO-31 = test system: UO-31
RPMI-8226 = test system: RPMI-8226
LXFL 529 = test system: LXFL 529
DMS-273 = test system: DMS-273
MCF7 = test system: MCF7
SK-MEL-5 = test system: SK-MEL-5
UACC-62 = test system: UACC-62
SNB-78 = test system: SNB-78
NCI/ADR-RES = test system: NCI/ADR-RES
SK-OV-3 = test system: SK-OV-3

## CCOC(=O)C1S/C(=N\C(=N)N[N+](=O)[O-])N=C1C (configuration not stated)
SF-268
  GI50: > 100 µM (inactive)
EKVX
  GI50: > 100 µM (inactive)
SNB-19
  GI50: > 100 µM (inactive)
HOP-18
  GI50: > 100 µM (inactive)
DMS-114
  GI50: > 100 µM (inactive)
OVCAR-4
  GI50: > 100 µM (inactive)
COLO 205
  GI50: > 100 µM (inactive)
LOX IMVI
  GI50: > 100 µM (inactive)
HL-60
  GI50: > 100 µM (inactive)
RXF 393
  GI50: > 100 µM (inactive)
A498
  GI50: > 100 µM (inactive)
UACC-257
  GI50: > 100 µM (inactive)
SNB-75
  GI50: > 100 µM (inactive)
NCI-H522
  GI50: > 100 µM (inactive)
HOP-92
  GI50: > 100 µM (inactive)
NCI-H226
  GI50: > 100 µM (inactive)
NCI-H23
  GI50: > 100 µM (inactive)
SN12C
  GI50: > 100 µM (inactive)
IGROV-1
  GI50: > 100 µM (inactive)
NCI-H460
  GI50: > 100 µM (inactive)
U-251
  GI50: > 100 µM (inactive)
OVCAR-3
  GI50: > 100 µM (inactive)
HT-29
  GI50: > 100 µM (inactive)
OVCAR-5
  GI50: > 100 µM (inactive)
Malme-3M
  GI50: > 100 µM (inactive)
SF-295
  GI50: > 100 µM (inactive)
786-0
  GI50: > 100 µM (inactive)
MOLT-4
  GI50: > 100 µM (inactive)
KM-20L2
  GI50: > 100 µM (inactive)
SK-MEL-28
  GI50: > 100 µM (inactive)
SK-MEL-2
  GI50: > 100 µM (inactive)
TK-10
  GI50: > 100 µM (inactive)
XF498
  GI50: > 100 µM (inactive)
SF-539
  GI50: > 100 µM (inactive)
OVCAR-8
  GI50: > 100 µM (inactive)
K562
  GI50: > 100 µM (inactive)
HOP-62
  GI50: > 100 µM (inactive)
SR
  GI50: > 100 µM (inactive)
HCT-116
  GI50: > 100 µM (inactive)
M19-MEL
  GI50: > 100 µM (inactive)
HCC 2998
  GI50: > 100 µM (inactive)
KM12
  GI50: > 100 µM (inactive)
SW-620
  GI50: > 100 µM (inactive)
HCT-15
  GI50: > 100 µM
A549
  GI50: > 100 µM (inactive)
DLD-1
  GI50: > 100 µM (inactive)
ACHN
  GI50: > 100 µM (inactive)
UO-31
  GI50: > 100 µM (inactive)
RPMI-8226
  GI50: > 100 µM (inactive)
LXFL 529
  GI50: > 100 µM (inactive)

## Nc1[nH]cnc2ncnc1-2 [ADENINE]
HOP-18
  GI50: 109 µM (inactive)
DMS-114
  GI50: 84.1 µM (inactive)
OVCAR-4
  GI50: > 126 µM (inactive)
DMS-273
  GI50: 81.1 µM (inactive)
MCF7
  GI50: > 21.3 µM (inactive)
COLO 205
  GI50: > 162 µM (inactive)
LOX IMVI
  GI50: 140 µM (inactive)
HL-60
  GI50: 36.6 µM (inactive)
RXF 393
  GI50: 30.1 µM (inactive)
A498
  GI50: 7.14 µM (inactive)
UACC-257
  GI50: 200 µM (inactive)
SNB-75
  GI50: 121 µM (inactive)
NCI-H522
  GI50: 50.7 µM (inactive)
SK-MEL-5
  GI50: > 96.6 µM (inactive)
HOP-92
  GI50: 146 µM (inactive)
NCI-H226
  GI50: 111 µM (inactive)
SN12C
  GI50: 96.2 µM (inactive)
UACC-62
  GI50: 48.1 µM (inactive)
IGROV-1
  GI50: > 250 µM (inactive)
SNB-78
  GI50: 114 µM (inactive)
U-251
  GI50: 108 µM (inactive)
HT-29
  GI50: > 121 µM (inactive)
OVCAR-5
  GI50: > 250 µM (inactive)
SF-295
  GI50: 108 µM (inactive)
KM-20L2
  GI50: > 250 µM (inactive)
NCI/ADR-RES
  GI50: 46.2 µM (inactive)
SK-MEL-28
  GI50: > 243 µM (inactive)
SK-MEL-2
  GI50: > 250 µM (inactive)
XF498
  GI50: 9.4 µM (inactive)
SF-539
  GI50: 49.7 µM (inactive)
OVCAR-8
  GI50: 105 µM (inactive)
K562
  GI50: > 248 µM (inactive)
HOP-62
  GI50: 58.9 µM (inactive)
HCT-116
  GI50: > 250 µM (inactive)
M19-MEL
  GI50: > 141 µM (inactive)
HCC 2998
  GI50: > 125 µM (inactive)
SK-OV-3
  GI50: > 250 µM (inactive)
KM12
  GI50: 153 µM (inactive)
SW-620
  GI50: 231 µM (inactive)
DLD-1
  GI50: 135 µM (inactive)
UO-31
  GI50: 129 µM (inactive)
RPMI-8226
  GI50: 168 µM (inactive)
